Results reported in PubChem BioAssay (NCI).
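Protocol summary: plate cells (96-well), add compound at 5 concentrations, incubate 48 h, interpolate endpoints linearly. The concentration for full growth arrest is given as TGI.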

Key:
Test in all cases: inhibition of tumour cell growth, NCI panel, 48 h
786-0 renal = system: 786-0 renal
A498 renal = system: A498 renal
A549 NSCLC = system: A549 NSCLC
ACHN renal = system: ACHN renal
BT-549 breast = system: BT-549 breast
CAKI-1 renal = system: CAKI-1 renal
CCRF-CEM leukemia = system: CCRF-CEM leukemia
COLO 205 colon = system: COLO 205 colon
DU-145 prostate = system: DU-145 prostate
EKVX NSCLC = system: EKVX NSCLC
HCC-2998 colon = system: HCC-2998 colon
HCT-116 colon = system: HCT-116 colon
HCT-15 colon = system: HCT-15 colon
HL-60(TB) leukemia = system: HL-60(TB) leukemia
HOP-62 NSCLC = system: HOP-62 NSCLC
HOP-92 NSCLC = system: HOP-92 NSCLC
HS 578T breast = system: HS 578T breast
HT29 colon = system: HT29 colon
IGROV1 ovarian = system: IGROV1 ovarian
K-562 leukemia = system: K-562 leukemia
KM12 colon = system: KM12 colon
LOX IMVI melanoma = system: LOX IMVI melanoma
M14 melanoma = system: M14 melanoma
MALME-3M melanoma = system: MALME-3M melanoma
MCF7 breast = system: MCF7 breast
MDA-MB-231 breast = system: MDA-MB-231 breast
MDA-MB-435 = system: MDA-MB-435
MDA-N = system: MDA-N
MOLT-4 leukemia = system: MOLT-4 leukemia
NCI-H226 lung = system: NCI-H226 lung
NCI-H23 lung = system: NCI-H23 lung
NCI-H460 lung = system: NCI-H460 lung
NCI-H522 lung = system: NCI-H522 lung
NCI/ADR-RES ovarian = system: NCI/ADR-RES ovarian
OVCAR-4 ovarian = system: OVCAR-4 ovarian
OVCAR-5 ovarian = system: OVCAR-5 ovarian
OVCAR-8 ovarian = system: OVCAR-8 ovarian
PC-3 prostate = system: PC-3 prostate
RPMI-8226 leukemia = system: RPMI-8226 leukemia
RXF 393 renal = system: RXF 393 renal
SF-268 CNS = system: SF-268 CNS
SF-295 CNS = system: SF-295 CNS
SK-MEL-2 melanoma = system: SK-MEL-2 melanoma
SK-MEL-28 melanoma = system: SK-MEL-28 melanoma
SK-MEL-5 melanoma = system: SK-MEL-5 melanoma
SK-OV-3 ovarian = system: SK-OV-3 ovarian
SN12C renal = system: SN12C renal
SNB-19 CNS = system: SNB-19 CNS
SNB-75 CNS = system: SNB-75 CNS
SR leukemia = system: SR leukemia
SW-620 colon = system: SW-620 colon
T-47D breast = system: T-47D breast
TK-10 renal = system: TK-10 renal
U251 CNS = system: U251 CNS
UACC-257 melanoma = system: UACC-257 melanoma
UACC-62 melanoma = system: UACC-62 melanoma
UO-31 renal = system: UO-31 renal
OVCAR-3 ovarian = system: OVCAR-3 ovarian
SF-539 CNS = system: SF-539 CNS

Cc1nnc(N)nc1/C=C\c1ccc(N(C)C)cc1
TGI (786-0 renal): > 100 µM
TGI (A498 renal): > 100 µM
TGI (A549 NSCLC): > 100 µM
TGI (ACHN renal): > 100 µM
TGI (BT-549 breast): > 100 µM
TGI (CAKI-1 renal): > 63.3 µM
TGI (CCRF-CEM leukemia): > 100 µM
TGI (COLO 205 colon): > 100 µM
TGI (DU-145 prostate): > 100 µM
TGI (EKVX NSCLC): > 100 µM
TGI (HCC-2998 colon): 23.8 µM
TGI (HCT-116 colon): > 100 µM
TGI (HCT-15 colon): > 59.2 µM
TGI (HL-60(TB) leukemia): 8.91 µM
TGI (HOP-62 NSCLC): > 100 µM
TGI (HOP-92 NSCLC): > 100 µM
TGI (HS 578T breast): > 100 µM
TGI (HT29 colon): > 100 µM
TGI (IGROV1 ovarian): > 100 µM
TGI (K-562 leukemia): > 100 µM
TGI (KM12 colon): > 100 µM
TGI (LOX IMVI melanoma): 20.1 µM
TGI (M14 melanoma): > 100 µM
TGI (MALME-3M melanoma): > 100 µM
TGI (MCF7 breast): > 100 µM
TGI (MDA-MB-231 breast): > 100 µM
TGI (MDA-MB-435): > 100 µM
TGI (MDA-N): > 100 µM
TGI (MOLT-4 leukemia): > 100 µM
TGI (NCI-H226 lung): > 100 µM
TGI (NCI-H23 lung): > 100 µM
TGI (NCI-H460 lung): > 100 µM
TGI (NCI-H522 lung): 17.1 µM
TGI (NCI/ADR-RES ovarian): > 100 µM
TGI (OVCAR-4 ovarian): > 100 µM
TGI (OVCAR-5 ovarian): > 100 µM
TGI (OVCAR-8 ovarian): > 100 µM
TGI (PC-3 prostate): > 100 µM
TGI (RPMI-8226 leukemia): > 100 µM
TGI (RXF 393 renal): > 100 µM
TGI (SF-268 CNS): > 100 µM
TGI (SF-295 CNS): > 100 µM
TGI (SK-MEL-2 melanoma): > 100 µM
TGI (SK-MEL-28 melanoma): > 100 µM
TGI (SK-MEL-5 melanoma): > 100 µM
TGI (SK-OV-3 ovarian): > 100 µM
TGI (SN12C renal): > 100 µM
TGI (SNB-19 CNS): > 100 µM
TGI (SNB-75 CNS): > 100 µM
TGI (SR leukemia): > 100 µM
TGI (SW-620 colon): > 100 µM
TGI (T-47D breast): > 100 µM
TGI (TK-10 renal): > 100 µM
TGI (U251 CNS): > 100 µM
TGI (UACC-257 melanoma): > 100 µM
TGI (UACC-62 melanoma): > 66.9 µM
TGI (UO-31 renal): > 100 µM

CC1CC(C)CN(S(=O)(=O)c2cc(Cl)c(Oc3ccc([N+](=O)[O-])cc3Cl)c(Cl)c2)C1 (configuration not stated)
TGI (786-0 renal): > 100 µM
TGI (A498 renal): > 100 µM
TGI (A549 NSCLC): > 100 µM
TGI (ACHN renal): > 100 µM
TGI (BT-549 breast): > 100 µM
TGI (CAKI-1 renal): > 100 µM
TGI (COLO 205 colon): > 100 µM
TGI (DU-145 prostate): > 100 µM
TGI (EKVX NSCLC): > 100 µM
TGI (HCC-2998 colon): > 100 µM
TGI (HCT-116 colon): > 100 µM
TGI (HCT-15 colon): > 100 µM
TGI (HL-60(TB) leukemia): > 100 µM
TGI (HOP-62 NSCLC): > 100 µM
TGI (HOP-92 NSCLC): > 100 µM
TGI (HS 578T breast): > 100 µM
TGI (HT29 colon): > 100 µM
TGI (IGROV1 ovarian): > 100 µM
TGI (K-562 leukemia): > 100 µM
TGI (KM12 colon): > 100 µM
TGI (LOX IMVI melanoma): > 100 µM
TGI (M14 melanoma): > 100 µM
TGI (MALME-3M melanoma): > 100 µM
TGI (MCF7 breast): > 100 µM
TGI (MDA-MB-231 breast): > 100 µM
TGI (MDA-MB-435): > 100 µM
TGI (MDA-N): > 100 µM
TGI (MOLT-4 leukemia): > 100 µM
TGI (NCI-H226 lung): > 100 µM
TGI (NCI-H23 lung): > 100 µM
TGI (NCI-H460 lung): > 100 µM
TGI (NCI-H522 lung): > 100 µM
TGI (NCI/ADR-RES ovarian): > 100 µM
TGI (OVCAR-3 ovarian): > 100 µM
TGI (OVCAR-4 ovarian): > 100 µM
TGI (OVCAR-5 ovarian): > 100 µM
TGI (OVCAR-8 ovarian): > 100 µM
TGI (PC-3 prostate): > 100 µM
TGI (RPMI-8226 leukemia): > 100 µM
TGI (RXF 393 renal): > 100 µM
TGI (SF-268 CNS): > 100 µM
TGI (SF-295 CNS): > 100 µM
TGI (SF-539 CNS): > 100 µM
TGI (SK-MEL-2 melanoma): > 100 µM
TGI (SK-MEL-28 melanoma): > 100 µM
TGI (SK-MEL-5 melanoma): > 100 µM
TGI (SK-OV-3 ovarian): > 100 µM
TGI (SN12C renal): > 100 µM
TGI (SNB-19 CNS): > 100 µM
TGI (SNB-75 CNS): > 100 µM
TGI (SR leukemia): > 100 µM
TGI (SW-620 colon): > 100 µM
TGI (T-47D breast): > 100 µM
TGI (TK-10 renal): > 100 µM
TGI (U251 CNS): > 100 µM
TGI (UACC-257 melanoma): > 100 µM
TGI (UACC-62 melanoma): > 100 µM
TGI (UO-31 renal): > 100 µM

N#CC(NCCc1ccccc1)c1ccccc1 (configuration not stated)
TGI (786-0 renal): > 100 µM
TGI (A549 NSCLC): > 100 µM
TGI (ACHN renal): > 100 µM
TGI (BT-549 breast): > 100 µM
TGI (CAKI-1 renal): > 100 µM
TGI (CCRF-CEM leukemia): > 100 µM
TGI (COLO 205 colon): > 100 µM
TGI (DU-145 prostate): > 100 µM
TGI (EKVX NSCLC): > 100 µM
TGI (HCC-2998 colon): > 100 µM
TGI (HCT-116 colon): > 100 µM
TGI (HCT-15 colon): > 100 µM
TGI (HL-60(TB) leukemia): > 100 µM
TGI (HOP-62 NSCLC): > 100 µM
TGI (HOP-92 NSCLC): > 100 µM
TGI (HS 578T breast): > 100 µM
TGI (HT29 colon): > 100 µM
TGI (IGROV1 ovarian): > 100 µM
TGI (KM12 colon): > 100 µM
TGI (LOX IMVI melanoma): > 100 µM
TGI (M14 melanoma): > 100 µM
TGI (MALME-3M melanoma): > 100 µM
TGI (MCF7 breast): > 100 µM
TGI (MDA-MB-231 breast): > 100 µM
TGI (MDA-MB-435): > 100 µM
TGI (MDA-N): > 100 µM
TGI (MOLT-4 leukemia): > 100 µM
TGI (NCI-H226 lung): > 100 µM
TGI (NCI-H23 lung): > 100 µM
TGI (NCI-H460 lung): > 100 µM
TGI (NCI-H522 lung): > 100 µM
TGI (NCI/ADR-RES ovarian): > 100 µM
TGI (OVCAR-3 ovarian): > 100 µM
TGI (OVCAR-4 ovarian): > 100 µM
TGI (OVCAR-5 ovarian): > 100 µM
TGI (OVCAR-8 ovarian): > 100 µM
TGI (PC-3 prostate): > 100 µM
TGI (RPMI-8226 leukemia): > 100 µM
TGI (RXF 393 renal): > 100 µM
TGI (SF-268 CNS): > 100 µM
TGI (SF-295 CNS): > 100 µM
TGI (SF-539 CNS): > 100 µM
TGI (SK-MEL-2 melanoma): > 100 µM
TGI (SK-MEL-28 melanoma): > 100 µM
TGI (SK-MEL-5 melanoma): > 100 µM
TGI (SK-OV-3 ovarian): > 100 µM
TGI (SN12C renal): > 100 µM
TGI (SNB-19 CNS): > 100 µM
TGI (SNB-75 CNS): > 100 µM
TGI (SR leukemia): > 100 µM
TGI (SW-620 colon): > 100 µM
TGI (T-47D breast): > 100 µM
TGI (TK-10 renal): > 100 µM
TGI (U251 CNS): > 100 µM
TGI (UACC-257 melanoma): > 100 µM
TGI (UACC-62 melanoma): > 100 µM
TGI (UO-31 renal): > 100 µM
